Literature values, collected in US20100047341A1, “COMBINED PREPARATION FOR THE TREATMENT OF CARDIOVASCULAR DISEASES BASED ON CHRONOTHERAPY THEORY” (HANALL PHARMACEUTICAL CO., LTD., priority 2006, published 2010).

CCCCc1nc(Cl)c(CO)n1Cc1ccc(-c2ccccc2-c2nn[nH]n2)cc1 [Losartan, 2-butyl-4chloro-1-[p-(o-1H-tetrazol-5-ylphenyl)benzyl]imidazole-5-methanol]
time to maximum level in blood (losartan itself as active form released from the liver to blood): an hour

CCCCc1nc(Cl)c(C(=O)O)n1Cc1ccc(-c2ccccc2-c2nn[nH]n2)cc1 [losartan carboxylate]
time to maximum plasma concentration (after the conversion of losartan in the liver): 3 to 4 h
